Results from ChEMBL document CHEMBL5036330, “Discovery of 8,9-seco-ent-Kaurane Diterpenoids as Potential Leads for the Treatment of Triple-Negative Breast Cancer” (J Med Chem, 2021).
pIC50: −log10 of the molar value. The source made the active and inactive calls. No cut-off for these calls is given here.

What was measured:
MDA-MB-468 [1] = experiment: Induction of apoptosis in human MDA-MB-468 cells assessed as early apoptotic cells at 2 uM measured after 24 hrs by Annexin V/Propidium iodide stain based Flow cytometry (reference value: 7.98%); format: functional
MDA-MB-231 [2] = experiment: Inhibition of Akt phosphorylation in human MDA-MB-231 cells measured after 24 hrs by Western blot analysis; format: cell-based
MDA-MB-231 [3] = experiment: Induction of cell cycle arrest in human MDA-MB-231 cells assessed as accumulation of cells at G1 phase at 5 uM measured after 24 hrs by flow cytometry (reference value: 47.7%); format: functional
MDA-MB-468 [4] = experiment: Inhibition of PI3K phosphorylation in human MDA-MB-468 cells measured at 1 to 5 uM after 24 hrs by Western blot analysis; format: cell-based; conditions: dose 1-5 µM
MDA-MB-468 [5] = experiment: Antitumor activity against human MDA-MB-468 cells xenografted in NOD/SCID mouse assessed as decrease in CD31 expression in tumor tissue at 5 to 10 mg/kg, ip treated for 33 days by immunohistochemical analysis; format: functional, organism-based; conditions: dose 5-10 mg/kg, time 33.0 day
MDA-MB-468 [6] = experiment: Effect on mTOR expression in human MDA-MB-468 cells measured at 1 to 5 uM after 24 hrs by Western blot analysis; format: functional, cell-based; conditions: dose 1-5 µM
[7] = Toxicity in NOD/SCID mouse assessed as change in body weight at 5 to 10 mg/kg, ip treated for 33 days; format: organism-based; conditions: in vivo, 792 h, dose 5-10 mg/kg, time 33 day
MDA-MB-468 [8] = experiment: Induction of apoptosis in human MDA-MB-468 cells assessed as early apoptotic cells at 5 uM measured after 24 hrs by Annexin V/Propidium iodide stain based Flow cytometry (reference value: 7.98%); format: functional
[9] = Toxicity in NOD/SCID mouse assessed as cytotoxicity in heart at 10 mg/kg, ip treated for 33 days by H&E staining analysis; format: organism-based; conditions: in vivo, 792 h, time 33 day
[10] = Selectivity index, ratio of IC50 for HEK293 cells to IC50 for human MBA-MB-231 cells; format: toxicity; conditions: HEK293 cells versus MBA-MB-231 cells, read-out: Selectivity Index
MDA-MB-231 [11] = experiment: Induction of apoptosis in human MDA-MB-231 cells assessed as early apoptotic cells at 5 uM measured after 24 hrs by Annexin V/Propidium iodide stain based Flow cytometry (reference value: 3.34%); format: functional
MDA-MB-231 [12] = experiment: Induction of cell cycle arrest in human MDA-MB-231 cells assessed as accumulation of cells at S phase at 1 uM measured after 24 hrs by flow cytometry (reference value: 32.2%); format: functional
MDA-MB-468 [13] = experiment: Induction of autophagy in human MDA-MB-468 cells assessed as elimination of p62 at 1 to 5 uM incubated for 24 hrs by Western blot analysis; format: functional, cell-based; conditions: dose 1-5 µM
MDA-MB-468 [14] = experiment: Antitumor activity against human MDA-MB-468 cells xenografted in NOD/SCID mouse assessed as increase in TUNEL expression in tumor tissue at 5 to 10 mg/kg, ip treated for 33 days by immunohistochemical analysis; format: functional, organism-based; conditions: dose 5-10 mg/kg, time 33.0 day
MDA-MB-231 [15] = experiment: Induction of apoptosis in human MDA-MB-231 cells assessed as increase in cleaved caspase 3 at 1 to 5 uM measured after 24 hrs by Western blot analysis; format: functional, cell-based; conditions: dose 1-5 µM
MDA-MB-468 [16] = experiment: Induction of mitochondrial depolarization in human MDA-MB-468 cells assessed as aggregates at 2 uM in dark by JC10 staining based fluorescence microscopy (reference value: 91.6%); format: functional
MDA-MB-468 [17] = experiment: Induction of apoptosis in human MDA-MB-468 cells assessed as late apoptotic cells at 2 uM measured after 24 hrs by Annexin V/Propidium iodide stain based Flow cytometry (reference value: 3.98%); format: functional
HEK293 = experiment: Cytotoxicity against HEK-293 cells assessed as reduction in cell viability incubated for 96 hrs by MTT method; format: cell-based; conditions: Homo sapiens, HEK293, 96 h
MDA-MB-231 [18] = experiment: Effect on mTOR expression in human MDA-MB-231 cells measured at 1 to 5 uM after 24 hrs by Western blot analysis; format: functional, cell-based; conditions: dose 1-5 µM
MDA-MB-231 [19] = experiment: Induction of mitochondrial depolarization in human MDA-MB-231 cells assessed as monomers at 2 uM in dark by JC10 staining based fluorescence microscopy (reference value: 5.6%); format: functional
MDA-MB-231 [20] = experiment: Induction of mitochondrial depolarization in human MDA-MB-231 cells assessed as aggregates at 2 uM in dark by JC10 staining based fluorescence microscopy (reference value: 94.4%); format: functional
MDA-MB-231 [21] = experiment: Induction of apoptosis in human MDA-MB-231 cells assessed as late apoptotic cells at 2 uM measured after 24 hrs by Annexin V/Propidium iodide stain based Flow cytometry (reference value: 2.78%); format: functional
MDA-MB-231 [22] = experiment: Induction of cell cycle arrest in human MDA-MB-231 cells assessed as accumulation of cells at G2 phase at 5 uM measured after 24 hrs by flow cytometry (reference value: 20.2%); format: functional
MDA-MB-231 [23] = experiment: Inhibition of PI3K phosphorylation in human MDA-MB-231 cells measured at 1 to 5 uM after 24 hrs by Western blot analysis; format: cell-based; conditions: dose 1-5 µM
MDA-MB-231 [24] = experiment: Induction of cell cycle arrest in human MDA-MB-231 cells assessed as accumulation of cells at G1 phase at 1 uM measured after 24 hrs by flow cytometry (reference value: 47.7%); format: functional
MDA-MB-231 [25] = experiment: Induction of autophagy in human MDA-MB-231 cells assessed as elimination of p62 at 1 to 5 uM incubated for 24 hrs by Western blot analysis; format: functional, cell-based; conditions: dose 1-5 µM
MDA-MB-468 [26] = experiment: Induction of cell cycle arrest in human MDA-MB-468 cells assessed as accumulation of cells at G1 phase at 2 uM measured after 24 hrs by flow cytometry (reference value: 26.6%); format: functional
MDA-MB-231 [27] = experiment: Induction of mitochondrial depolarization in human MDA-MB-231 cells assessed as aggregates at 5 uM in dark by JC10 staining based fluorescence microscopy (reference value: 94.4%); format: functional
[28] = target: RAC-alpha serine/threonine-protein kinase (Homo sapiens) (UniProt P31749); experiment: Binding affinity to Akt1 in human MDA-MB-468 cells assessed as shifted melting curve at 2 uM by CETSA assay; format: cell-based
MDA-MB-231 [29] = experiment: Effect on Akt expression in human MDA-MB-231 cells measured at 1 to 5 uM after 24 hrs by Western blot analysis; format: functional, cell-based; conditions: dose 1-5 µM
[30] = target: RAC-alpha serine/threonine-protein kinase (Homo sapiens) (UniProt P31749); experiment: Binding affinity to Akt1 in human MDA-MB-231 cells assessed as shifted melting curve at 2 uM by CETSA assay; format: cell-based
MDA-MB-231 [31] = experiment: Antitumor activity against human MDA-MB-231 cells xenografted in NOD/SCID mouse assessed as increase in LC3B expression in tumor tissue at 5 to 10 mg/kg, ip treated for 33 days by immunohistochemical analysis; format: functional, organism-based; conditions: dose 5-10 mg/kg, time 33.0 day
MDA-MB-468 [32] = experiment: Induction of cell cycle arrest in human MDA-MB-468 cells assessed as accumulation of cells at G2 phase at 1 uM measured after 24 hrs by flow cytometry (reference value: 26.5%); format: functional
MDA-MB-231 [33] = experiment: Antiinvasive activity against human MDA-MB-231 cells measured upto 72 hrs by transwell invasion assay relative to control; format: functional, cell-based; conditions: dose 0.1-0.2 µM, time hrs <=72
MDA-MB-468 [34] = experiment: Induction of apoptosis in human MDA-MB-468 cells assessed as late apoptotic cells at 1 uM measured after 24 hrs by Annexin V/Propidium iodide stain based Flow cytometry (reference value: 3.98%); format: functional

Chain of RAC-alpha serine/threonine-protein kinase (Homo sapiens) (P31749 whole entry): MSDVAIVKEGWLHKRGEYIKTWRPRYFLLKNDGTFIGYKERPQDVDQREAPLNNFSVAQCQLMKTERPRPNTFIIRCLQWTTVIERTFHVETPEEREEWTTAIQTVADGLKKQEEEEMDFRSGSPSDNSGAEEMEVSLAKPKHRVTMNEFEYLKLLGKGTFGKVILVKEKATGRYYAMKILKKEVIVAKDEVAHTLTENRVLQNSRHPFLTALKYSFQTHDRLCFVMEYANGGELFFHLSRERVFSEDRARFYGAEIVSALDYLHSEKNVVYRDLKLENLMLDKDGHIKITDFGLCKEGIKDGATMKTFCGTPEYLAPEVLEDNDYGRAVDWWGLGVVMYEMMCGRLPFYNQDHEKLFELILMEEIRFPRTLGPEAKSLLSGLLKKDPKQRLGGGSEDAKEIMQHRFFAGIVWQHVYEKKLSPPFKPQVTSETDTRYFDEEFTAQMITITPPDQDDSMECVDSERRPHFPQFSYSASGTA

Compound: C=C1C(=O)C2=C[C@H]1CCC(=O)[C@]1(C)[C@H](O)CCC(C)(C)[C@H]1C[C@H]2O
- Activity (MDA-MB-468 [1]): 35.5%
- inhibition (MDA-MB-231 [2]): Active
- Activity (MDA-MB-231 [3]): 27.5%
- inhibition (MDA-MB-468 [4]): inactive
- Activity (MDA-MB-468 [5]): Active
- Activity (MDA-MB-468 [6]): inactive
- Activity [7]: Non-Toxic
- Activity (MDA-MB-468 [8]): 21%
- Activity [9]: Non-Toxic
- selectivity ratio [10]: 26.2
- Activity (MDA-MB-231 [11]): 18%
- Activity (MDA-MB-231 [12]): 37%
- Activity (MDA-MB-468 [13]): Active
- Activity (MDA-MB-468 [14]): Active
- Activity (MDA-MB-231 [15]): Active
- Activity (MDA-MB-468 [16]): 21.5%
- Activity (MDA-MB-468 [17]): 12.5%
- pIC50 (HEK293): 5.71
- Activity (MDA-MB-231 [18]): inactive
- Activity (MDA-MB-231 [19]): 43.1%
- Activity (MDA-MB-231 [20]): 56.9%
- Activity (MDA-MB-231 [21]): 13.6%
- Activity (MDA-MB-231 [22]): 37.4%
- inhibition (MDA-MB-231 [23]): inactive
- Activity (MDA-MB-231 [24]): 33.7%
- Activity (MDA-MB-231 [25]): Active
- Activity (MDA-MB-468 [26]): 14.3%
- Activity (MDA-MB-231 [27]): 23.8%
- Activity [28]: Active
- Activity (MDA-MB-231 [29]): inactive
- Activity [30]: Active
- Activity (MDA-MB-231 [31]): Active
- Activity (MDA-MB-468 [32]): 57.9%
- Activity (MDA-MB-231 [33]): Dose-Dependent Effect
- Activity (MDA-MB-468 [34]): 10.1%
